According to patent US7030246B2, “Tetrahydroquinoline derivatives as stat6-modulators, preparation and use thereof” (Astrazeneca AB, priority 2001, dated 2006):

The compounds below were run on STAT6 signaling pathway (assay: Inhibition of STAT6-driven reporter gene activity (IL-4 induced luciferase in transfected U937 cells)). Settings: U-937; U937 cells stably transfected with IL-4 responsive luciferase reporter; 10 ng/ml recombinant human IL-4, 4–5 h; compound added 5 min before IL-4; read-out: IC50 (concentration of compound giving 50 percent inhibition of the luciferase response to addition of IL-4).
Type: cell-based
Source text: The ability of the compounds described herein to inhibit STAT6 signaling pathway is manifested in their ability to inhibit STAT6 driven reporter gene activity.
The cytokine-responsive human cell line U937 were transfected with a reporter gene plasmid consisting of an interluekin 4 (IL-4) responsive promoter driving the heterologous firefly gene for luciferase. The reporter gene plasmid also contained a gene for neomycin resistance. The IL-4 responsive promoter were constructed by four oligomerized combined C/BEPβ and STAT6 binding sites with the nucleotide sequence […] in close contact with a TATA-box. Cells with a stable integration of the reporter gene plasmid were selected by cultivation in neomycin. Such transfected cells were used for IL-4 induction by adding 10 ng/ml recombinant human IL-4 to 0.5–1×10^6 cells per ml. IL-4 induction were carried out for 4–5 h. Thereafter the cells were lysed and luciferase activity determined by using standard techniques. Numbers measured are the mean fold induction (fold induction for U937 is defined as the luciferase response in an IL-4 treated U937 cell sample divided by the luciferase response in an untreated U937 cell sample). Typically, IL-4 stimulation gave 15–20 fold induction of the luciferase response. Compounds were added 5 min before IL-4 when tested in the reporter gene assay. Compound effect was expressed as the concentration of compound giving 50 percent inhibition (IC50) of the luciferase response to addition of IL-4.

Row | Structure (SMILES) | IC50
1 | CC(=O)N1c2ccccc2[C@H](Nc2ccc(C)cc2)C[C@@H]1C (relative stereo) [No 27 Table I, (2S*,4R*)-1-Acetyl-2-methyl-N-(4-methylphenyl)-1,2,3,4-tetrahydro-4-quinolinamine] | 800 nM
2 | CC(=O)N1c2ccccc2[C@H](Nc2ccc(C#N)cc2)C[C@@H]1C (relative stereo) [No 36 Table I, 4-{[(2S*,4R*)-1-acetyl-2-methyl-1,2,3,4-tetrahydro-4-quinolinyl]amino}benzonitrile] | 430 nM
3 | CC(=O)N1c2ccc(I)cc2[C@H](Nc2ccccc2)C[C@@H]1C (relative stereo) [No 74 Table I, (2S*,4R*)-1-Acetyl-1,2,3,4-tetrahydro-6-iodo-2-methyl-N-phenyl-4-quinolinamine] | 180 nM
